Experimental findings from publication PMC8205227 (ACS Infectious Diseases, 2021) are described below.

Values after ≈ are worked out from the molar mass of the structure shown. Where two headings read alike, the source gives them in different places.

One may read the IC50 as the midpoint of a concentration-inhibition curve. Higher therefore signals weaker potency in that assay. A word on the chromatographic logD: it is a lipophilicity value derived from retention on a column. The kinetic solubility is the concentration staying in solution when a stock, usually in DMSO, is diluted into the medium.

The test system of one data set is HepG2 cells. Briefly: HepG2 cytotoxicity. The class given is cell-based. To be noted: Homo sapiens. From the text: (§1) Compounds were profiled for HepG2 cytotoxicity, mouse liver microsomal clearance, and aqueous solubility, as previously described.[66]
The subject of another data set is pyrophosphatase. Briefly: Counter-screen for false positives (pyrophosphatase inactivation). The class given is biochemical. As to the method: Counter-screens carried out to exclude false positive compounds were performed in 50 μL reactions containing 0.5 U/mL pyrophosphatase and 2 μM pyrophosphate in 100 mM Tris-HCl, pH 7.6, buffer containing 1 mM MgCl2 and 1 mM TCEP for 2 h at room temperature in 384-well microplates (Greiner Bio-One). Control reactions were performed in the absence of the pyrophosphatase. The reactions were terminated by addition of 50 μL BIOMOL Green (Enzo Life Sciences), and product formation was measured by absorbance (650 nm) using a PHERAstar microplate reader (BMG Labtech) following incubation for 20 min. Liquid dispensing was performed using a Thermo Scientific Matrix Wellmate, and data were processed and analyzed using ActivityBase (IDBS).

The nature of data set [1]: physchem. The class given is physicochemical. An excerpt:
Table 1 SAR and In Vitro Profiling of Modifications to Compound 1a ^a | column: CHI LogD

Data set [2] in a line: physchem. The class given is physicochemical. To be noted: kinetic from dmso stock.
Description: as §1

In another data set the target is Mtb CoaB (Mycobacterium tuberculosis, UniProt P9WNZ1). Briefly: BIOMOL Green end-point pyrophosphate quantification assay (high-throughput screen). The data set is classed as biochemical. To be noted: BIOMOL Green pyrophosphate quantification assay.
Sequence of Mtb CoaB (P9WNZ1 whole entry): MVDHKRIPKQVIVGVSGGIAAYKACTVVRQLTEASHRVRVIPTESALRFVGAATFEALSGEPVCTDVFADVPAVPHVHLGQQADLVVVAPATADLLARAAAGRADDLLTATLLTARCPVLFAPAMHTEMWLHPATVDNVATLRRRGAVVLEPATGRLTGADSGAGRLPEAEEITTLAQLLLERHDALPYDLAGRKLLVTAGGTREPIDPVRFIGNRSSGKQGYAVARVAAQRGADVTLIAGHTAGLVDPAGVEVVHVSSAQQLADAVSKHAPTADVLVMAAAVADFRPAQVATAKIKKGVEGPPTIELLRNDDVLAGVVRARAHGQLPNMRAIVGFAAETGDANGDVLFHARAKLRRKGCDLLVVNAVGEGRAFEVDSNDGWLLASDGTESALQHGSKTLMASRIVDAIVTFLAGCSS
The next data set relates to Mtb H37RvMA. Briefly: microbe, parasite or virus in culture. The class given is cell-based, Mycobacterium tuberculosis. To be noted: read-out: Mtb H37Rv MIC.
The format of data set [3] is in vitro ADME, mouse. The note with it: mouse, microsomes.
Description: as §1

Regarding `Cc1nn(-c2ccccc2)c(O)c1Sc1ccccc1` [Compound 1a, 4-Phenylsulfanyl-5-methyl-2-phenyl-pyrazol-3-ol], the IC50 was greater than 50 µM in the data set with HepG2 cells and 9.9 µM against Mtb CoaB. Further, the “Activity in counter-screen for pyrophosphatase inactivation” value in the data set on pyrophosphatase was “inactivity”. The same compound yielded a chromatographic logD in the data set “physchem [1]” of 0.4. For the same compound, the solubility (kinetic) in “physchem [2]” amounted to 219 µM (≈ 61.8 µg/mL). For the same compound, the MIC in the data set on Mtb H37RvMA (Mycobacterium tuberculosis, H37RV) is greater than 125 µM; with Mtb H37RvMA, greater than 125 µM. Further, the “Mouse Cli (intrinsic clearance)” value in data set [3] is given as less than 0.5 mL/min/g.
